In PubChem BioAssay AID2060359 (Molecular Pharmacology Branch, DTP, NCI, 2025):
Several values for one entry are separate records, joined by “and”; a condition that tells them apart may be missing. Equal values may be shown once.

System: 276233-004-R-J1-PDC spheroids with HUVEC/MSC, viability
Assay: Anticancer human tumor 276233-004-R-J1-PDC patient-derived colon adenocarcinoma cell line growth inhibition [TAK]
Settings: for viability, T/C: stronger effect = lower value
Description: Combinatorial screen of targeted agents with TAK-243 and ipatasertib in multi-cell type tumor spheroids
A high-throughput screen of multi-cell type tumor spheroids was designed to identify active combinations of targeted small molecules and TAK-243 or ipatasertib. Complex spheroids include a stromal component modeled by human endothelial cells (HUVEC) and fibroblasts modeled by human mesenchymal stem cells (MSCs). The concentration ranges selected for each drug and investigational agent were based upon clinically achievable concentrations if the clinical Cmax of the agent was known.
Compounds. The drugs and investigational agents: TAK-243 (785004), ipatasertib (767898), everolimus (733504), selumetinib (741078), bortezomib (756655), trametinib (758246), ixazomib (758254), vemurafenib (761431), dabrafenib (764134), sapanisertib (764658), alpelisib (765974), and copanlisib (816437), were obtained from the National Cancer Institute (NCI) Developmental Therapeutics Program Chemical Repository. The FDA-approved anticancer drug set is available from the NCI Developmental Therapeutics Program. […] The stock solutions were prepared in dimethyl sulfoxide (DMSO, Sigma-Aldrich, St. Louis, MO, cat. D2650) at 800-fold the tested concentration and stored at -70 degrees C prior to their use. All drugs and investigational agents were tested over a range starting from a high concentration at or near the clinical Cmax and decreasing in half-log increments. If the clinical Cmax for an agent had not been determined, the highest concentration tested was 10 microM.
NCI60 Cell Culture. NCI60 cell lines were obtained from the NCI Developmental Therapeutics Program Tumor Repository. For each lot of cells, the Repository performed Applied Biosystems AmpFLSTR Identifiler testing with PCR amplification to confirm consistency with the published Identifier STR profile for each cell line. Cells were kept in continuous culture for no more than 20 passages. The optimal seeding densities for each of the cell lines at each time point assessed were determined prior to performing the concentration response studies. Briefly, the NCI60 human tumor lines were grown as monolayers in RPMI 1640 medium supplemented with 10% FBS and 2 mmol/L L-glutamine.
An additional 2 lines were from the NCI60 cell line panel including melanomas, MALME-3M and SK-MEL-2. Pooled donor human umbilical vein endothelial cells (HUVEC, Lonza, cat. CC-2519) and human mesenchymal stem cells (hMSC, Lonza, cat. PT-2501) were purchased from Lonza (Walkersville, MD).
PDMR cell lines were grown in complete medium (DC medium): Dulbecco's modified Eagle's medium (DMEM)/F12 supplemented with 5% fetal bovine serum (FBS), 2 mM L-glutamine, 100 U/mL penicillin and 100 µg/ml streptomycin, 0.4 µg/ml hydrocortisone, 10 ng/ml epidermal growth factor (EGF) recombinant human protein, 24 µg/mL adenine, and 0.1 mg/mL primocin. During culture from frozen stock vials, PDMR cells were cultured in the same medium containing 10 µM Y-27632 (see Table 3). The PDCs were cultured in complete DMEM/F12 media without 10 microM Y-27632 dihydrochloride for at least two passages prior to the screen. The pooled donor HUVEC and hMSC were cultured in endothelial cell growth medium 2 (PromoCell, Heidelberg, Germany, cat. C-22011) and mesenchymal stem cell growth medium 2 (PromoCell, cat. C-28009), respectively. For all experiments, HUVEC and hMSC were used at passages </=5.
For the pre-screen, cell seeding densities were determined from a titration spanning the range from 5,000 to 313 cells per well. The mct-spheroids including 60% malignant cells, 25% HUVEC and 15% MSC dispensed as a mixture into U-bottom Ultra-Low Attachment 384-well plates (Corning, NY)
High-throughput Drug Combination Screening.
Prior to their inoculation into 384-well plates, malignant cells, HUVEC, and hMSC were removed from T flasks using TrypLE express (Thermo Fisher Scientific, cat. 12605036) and harvested by centrifugation for 5 min at 233 x g. […]
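Note: spheroids exposed to drugs for seven days before the viability read.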

Compound	IC50 (curve of compound)	viability, T/C (compound 0.0316 µM)	viability, T/C (compound 0.1 µM)	viability, T/C (compound 0.000316 µM)	viability, T/C (compound 0.001 µM)	viability, T/C (compound 0.00316 µM)	viability, T/C (compound 0.01 µM)	other results
CC(=O)Nc1cccc(-n2c(=O)n(C3CC3)c(=O)c3c(Nc4ccc(I)cc4F)n(C)c(=O)c(C)c32)c1	15.7 nM and 29.7 nM							viability, T/C (compound 94.9 pM): 92.8% and 120%; viability, T/C (compound 0.0003 µM): 81.6% and 81.1%; viability, T/C (compound 0.000949 µM): 88.4% and 73.1%; viability, T/C (compound 0.003 µM): 70.1% and 70%; viability, T/C (compound 0.00949 µM): 61.6% and 54.3%; viability, T/C (compound 0.03 µM): 37.1% and 44.9%
CC(C)(C)c1nc(-c2cccc(NS(=O)(=O)c3c(F)cccc3F)c2F)c(-c2ccnc(N)n2)s1	> 10000 nM	93.4% and 107%	86.3% and 116%					viability, T/C (compound 0.316 µM): 113% and 106%; viability, T/C (compound 1 µM): 86.4% and 100%; viability, T/C (compound 3.16 µM): 77.2% and 58.5%; viability, T/C (compound 10 µM): 84.5% and 86.9%
CC(C)CC(NC(=O)C(Cc1ccccc1)NC(=O)c1cnccn1)B(O)O (configuration not stated)	5.72 nM and 6.1 nM			97.6% and 93.5%	91.4% and 106%	89.8% and 112%	12.6% and 10%	viability, T/C (compound 31.6 pM): 107% and 98.8%; viability, T/C (compound 0.0001 µM): 88.1% and 105%
CC(C)CC(NC(=O)CNC(=O)c1cc(Cl)ccc1Cl)B1OC(=O)CC(CC(=O)O)(C(=O)O)O1 (configuration not stated)	61.4 nM and 66.5 nM	91.4% and 105%	19.5% and 23.7%	99.7% and 101%	110% and 108%	102% and 83.4%	103% and 92.3%	
CC(C)NCC(C(=O)N1CCN(c2ncnc3c2C(C)CC3O)CC1)c1ccc(Cl)cc1 (configuration not stated)								viability, T/C (compound 0.949 µM): 84.7% [middle of 10 runs]; viability, T/C (compound 3 µM): 82.2% [middle of 10 runs]; IC50 (compound alone, run of 03/19/2020): > 30000 nM
CC(C)n1nc(-c2ccc3oc(N)nc3c2)c2c(N)ncnc21	> 100 nM	82.8% and 66.4%	62% and 57.5%	104% and 103%	116% and 96.9%	90.4% and 95.4%	76.1% and 71.7%	
CCCS(=O)(=O)Nc1ccc(F)c(C(=O)c2c[nH]c3ncc(-c4ccc(Cl)cc4)cc23)c1F	> 100000 nM							viability, T/C (compound 0.316 µM): 81.8% and 103%; viability, T/C (compound 1 µM): 84.5% and 105%; viability, T/C (compound 3.16 µM): 114% and 104%; viability, T/C (compound 10 µM): 103% and 121%; viability, T/C (compound 31.6 µM): 103% and 89%; viability, T/C (compound 100 µM): 99% and 98.9%
COC1CC2CCC(C)C(O)(O2)C(=O)C(=O)N2CCCCC2C(=O)OC(C(C)CC2CCC(OCCO)C(OC)C2)CC(=O)C(C)C=C(C)C(O)C(OC)C(=O)C(C)CC(C)C=CC=CC=C1C (configuration not stated)	> 100 nM	77.4% and 80.3%	66.3% and 64.1%	107% and 100%	94.7% and 93.2%	83.6% and 81.6%	78.3% and 67.6%	
